Results on 7 compounds are retold here after ChEMBL document CHEMBL1201862, “PubChem BioAssay data set” (2004).

What all share (experiment): NCI anticancer screen, dose series, 48 h
Experiment [1] relates to SF-295.
For experiment [2], the system named is SN12C.
Experiment [3] concerns RPMI-8226.
Experiment [4] has as its system NCI-H226.
The test system of experiment [5] is HOP-62.
Experiment [6] deals with TK-10.
Experiment [7] has as its system HCC 2998.
In experiment [8] the test system is MCF7.
In experiment [9] the test system is A498.
For experiment [10], the system named is CCRF-CEM.
For experiment [11], the system named is UACC-62.
In experiment [12] the test system is U-251.
The test system of experiment [13] is OVCAR-4.
The subject of experiment [14] is ACHN.
Experiment [15] relates to SW-620.
The subject of experiment [16] is OVCAR-8.
The subject of experiment [17] is NCI-H23.
For experiment [18], the system named is KM12.
Experiment [19] concerns MDA-N.
For experiment [20], the system named is OVCAR-5.

Each structure is given as a SMILES string.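 Growth conditions: 96-well plates. Treatment: test compound, 48 hours, 5 concentrations. Analysis: linear interpolation between bracketing concentrations; unreached endpoints set to highest concentration. GI50 is the concentration that inhibits growth by half.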 The source made the active and inactive calls. Cut-off read from the data, not from the text of the source: active = GI50 up to about 1.1 µM and inactive = higher. Where only a bound is given, the exact number is not on record here.

Regarding `Cc1ccc(C(=O)Nc2ccc(S(=O)(=O)O)c3cc(S(=O)(=O)O)cc(S(=O)(=O)O)c23)cc1NC(=O)c1cccc(NC(=O)Nc2cccc(C(=O)Nc3cc(C(=O)Nc4ccc(S(=O)(=O)O)c5cc(S(=O)(=O)O)cc(S(=O)(=O)O)c45)ccc3C)c2)c1` [SURAMIN], the GI50 in [1] is 69 µM (inactive); in [2], > 80.9 µM (inactive); in experiment [3], > 100 µM (inactive); in [4], > 63.8 µM (inactive); in experiment [5], > 100 µM (inactive); in experiment [6], 32 µM (inactive). In addition, the GI50 in experiment [7] is > 100 µM (inactive); in [8], > 100 µM (inactive); in experiment [9], > 84.3 µM (inactive); in [10] it was > 100 µM (inactive); in experiment [11] it was 54.6 µM (inactive); in [12], 77.3 µM (inactive). Moreover, the GI50 in experiment [13] was 79.3 µM (inactive); in experiment [14] it was 97.9 µM (inactive); in experiment [15], 89.3 µM (inactive); in [16] it was 74.8 µM (inactive); in experiment [17], 68.9 µM (inactive); in [18], > 67.5 µM (inactive). The GI50 is > 100 µM (inactive) in experiment [19] and > 50.6 µM (inactive) in experiment [20].
As for `COc1ccc(/C=C\c2cc(OC)c(OC)c(OC)c2)cc1OCC(=O)O`, the GI50 was 12.7 µM (inactive) in experiment [1]; 9.18 µM (inactive) in [2]; 4.84 µM (inactive) in experiment [3]; 15.1 µM (inactive) in experiment [4]; 8.36 µM (inactive) in experiment [5]; > 97.3 µM (inactive) in [6]. The GI50 in experiment [7] is 88.9 µM (inactive); in [8], 36.6 µM (inactive); in experiment [9] it was 31.1 µM (inactive); in [10], 4.68 µM (inactive); in experiment [11], 4.99 µM (inactive); in experiment [12] it was 5.96 µM (inactive). Also, the GI50 in experiment [13] was 20.7 µM (inactive); in [14], 10.2 µM (inactive); in experiment [15], 3.78 µM (inactive); in experiment [16], 5.64 µM (inactive); in experiment [17], 3.9 µM (inactive); in [18], 5.86 µM (inactive). For the same compound, the figures for the GI50 in experiment [19] and in experiment [20] were 2.15 µM (inactive) and > 100 µM (inactive), respectively.
As to `C=CCOC(=O)N1c2ccc(O[Si](C)(C)C(C)(C)C)cc2[C@@]23O[C@@]24[C@@H]1C#C/C=C\C#C[C@]3(O)C(OC)(OC)C[C@@H]4C`, the GI50 in experiment [1] is > 34.1 µM (inactive); in [2] it was > 84.7 µM (inactive); in [3], 18.6 µM (inactive); in experiment [4], 13.6 µM (inactive); in experiment [5] it was > 61.7 µM (inactive); in [6], > 30.5 µM (inactive). The GI50 is > 22.8 µM (inactive) in experiment [7]; 10.8 µM (inactive) in experiment [8]; 1.31 µM (inactive) in experiment [9]; > 23.7 µM (inactive) in [10]; 10.8 µM (inactive) in experiment [11]; 18.6 µM (inactive) in [12]. In addition, the GI50 was 48.6 µM (inactive) in experiment [13]; 10.6 µM (inactive) in experiment [14]; 14 µM (inactive) in experiment [15]; > 53.8 µM (inactive) in experiment [16]; 16.3 µM (inactive) in experiment [17]; > 100 µM (inactive) in [18]. Also, the GI50 is > 57.5 µM (inactive) in [19] and > 100 µM (inactive) in experiment [20].
Regarding `Nc1nn2c(=O)c3ccccc3nc2s1`, the GI50 in experiment [1] was > 100 µM (inactive); in [2] it was 65.6 µM (inactive); in [3] it was 32.4 µM (inactive); in [4] it was 23.9 µM (inactive); in [5] it was > 100 µM (inactive); in experiment [6] it was > 100 µM (inactive). For the same compound, the GI50 in [7] was > 100 µM (inactive); in experiment [8] it was 50.1 µM (inactive); in experiment [9], > 100 µM (inactive); in [10], 18.2 µM (inactive); in experiment [11], > 100 µM (inactive); in [12] it was > 100 µM (inactive). Moreover, the GI50 in experiment [13] was > 100 µM (inactive); in [14], > 100 µM (inactive); in [15], 19.2 µM (inactive); in experiment [16] it was 30 µM (inactive); in experiment [17], 28.4 µM (inactive); in [18], > 100 µM (inactive). The GI50 in experiment [19] is 38.3 µM (inactive); in experiment [20], > 100 µM (inactive).
For the compound `Cc1cn(CCCCCOC(=O)NC(CCCNC(N)=O)C(=O)O)c(=O)[nH]c1=O` (stereo not given), the GI50 in [1], in experiment [2], in [3], in experiment [4], in experiment [5] and in experiment [6] was > 100 µM (inactive) in each case. In addition, the GI50 in experiment [7], in experiment [8], in [9], in experiment [10], in experiment [11] and in experiment [12] was > 100 µM (inactive) in each case. Further, the GI50 in experiment [13], in experiment [14], in experiment [15], in experiment [16], in experiment [17] and in experiment [18] was > 100 µM (inactive) each time. The GI50 in [19] and in [20] was > 100 µM (inactive) each time.
In the case of `COC(=O)C1(c2cc3ccccc3n2S(=O)(=O)c2ccccc2)CC2C=CC1NC2` (stereo not given), the GI50 is 2.91 µM (inactive) in experiment [1]; 2.08 µM (inactive) in [2]; 0.933 µM (active) in experiment [3]; 8.97 µM (inactive) in [4]; 1.66 µM (inactive) in [5]; 2.28 µM (inactive) in [6]. Also, the GI50 was 1.98 µM (inactive) in experiment [7]; 1.5 µM (inactive) in experiment [8]; 3.09 µM (inactive) in experiment [9]; 0.735 µM (active) in [10]; 1.62 µM (inactive) in experiment [11]; 1.43 µM (inactive) in experiment [12]. Moreover, the GI50 is 1.98 µM (inactive) in experiment [13]; 1.84 µM (inactive) in experiment [14]; 2.91 µM (inactive) in experiment [15]; 1.95 µM (inactive) in experiment [16]; 2.18 µM (inactive) in experiment [17]; 2.47 µM (inactive) in experiment [18]. Besides, the GI50 in experiment [19] was 2.13 µM (inactive); in experiment [20] it was 2.25 µM (inactive).
Consider `COc1ccnc2c1C(=O)c1nc3ccccc3c3ccnc-2c13`, for which the GI50 in [1] was 0.169 µM (active); in experiment [2] it was 0.112 µM (active); in experiment [3], 0.201 µM (active); in experiment [4], 0.17 µM (active); in experiment [5], 0.125 µM (active); in experiment [6], 0.324 µM (active). Further, the GI50 in experiment [7] is 0.0687 µM (active); in experiment [8], 0.0807 µM (active); in [9], 0.0859 µM (active); in [10] it was 0.295 µM (active); in [11] it was 0.136 µM (active); in experiment [12] it was 0.204 µM (active). Further, the GI50 in [13] was 0.307 µM (active); in [14], 0.0634 µM (active); in experiment [15], 0.0809 µM (active); in [16] it was 0.0512 µM (active); in experiment [17], 0.271 µM (active); in [18] it was 0.101 µM (active). The GI50 in experiment [19] is 0.25 µM (active); in experiment [20], 0.52 µM (active).
